According to patent US9708301B2, “Crystalline forms of afatinib monomaleate, preparation methods and pharmaceutical compositions thereof” (priority 2015, dated 2017):

Tests used:
Type in all cases: physicochemical
[1] = Solubility in pure water (water added progressively until the sample completely dissolved); settings: 25° C. (room temperature)
Protocol: Take 5 mg of the crystalline form of Afatinib dimaleate in the prior art prepared in preparation example 1 and the crystalline Form N of Afatinib monomaleate prepared in example 1 as the sample respectively, pure water was added into each sample progressively at 25° C. until the sample completely dissolved, then calculate the solubility of the sample according to the weight of the sample and water.

[2] = Dynamic vapour sorption (DVS) isothermal adsorption; settings: relative humidity 10%-80%
Protocol: Dynamic vapour sorption (DVS) data is collected using TA Instruments Q5000 TGA, the instrument control software is Thermal Advantage and the analytical software is Universal Analysis. Usually, 1-10 mg of the specimen is placed in a platinum pan, weight changes of the specimen are recorded by TA software within the process of the relative humidity change from 10% to 80% to 10%. Depending on specific situations, different sorption and desorption procedures may be used. An isothermal adsorption curve can be generated by the procession of software.

[3] = Hygroscopicity of prior-art forms (researches by the present inventors)

## CN(C)C/C=C/C(=O)Nc1cc2c(Nc3ccc(F)c(Cl)c3)ncnc2cc1O[C@H]1CCOC1 [Afatinib monomaleate]
[1]; listed as crystalline Form N of Afatinib monomaleate
  solubility: 126.9 mg/mL
[2]; listed as Example 1
  weight change of the salt within the relative humidity range of 10%-80%: 2.1%

## CN(C)C/C=C/C(=O)Nc1cc2c(Nc3ccc(F)c(Cl)c3)ncnc2cc1O[C@H]1CCOC1 [Afatinib dimaleate]
[1]; listed as crystalline form of Afatinib dimaleate in the prior art
  solubility: 7.5 mg/mL
[2]; listed as Preparation Example 1
  weight change of the salt within the relative humidity range of 10%-80%: 2.6%

## CN(C)C/C=C/C(=O)Nc1cc2c(Nc3ccc(F)c(Cl)c3)ncnc2cc1O[C@H]1CCOC1 [Form B of Afatinib dimaleate, Afatinib dimaleate]
[3]
  hygroscopicity: serious hygroscopicity issues
